From patent US20140171490A1, “Method and Device for Ophthalmic Administration of Active Pharmaceutical Ingredients” (PHARMALIGHT INC., priority 2005, published 2014)
Like-named read-outs stand apart in the source and are kept apart here.

What was measured:
beta-adrenoceptor = conditions: cited from earlier work
[1] = tested on: human corneal epithelial cells; conditions: reported in Burgalassi et al. Tox. Lett. 2001; cited from earlier work
eye = conditions: cited from earlier work
[2] = design: species or system Lewis female rats; conditions: rat, in vivo
Protocol: Animal studies were carried out on Lewis female rats (6-8 weeks of age) from Harlan Laboratories Inc. (Rehovot, Israel). In some cases as noted below, the rats were anesthetized with ketamin/xylazine […].
ELISA tests were performed using commercially available ELISA kits from Assay Designs (Ann Arbor, Mich., USA) in accordance with the manufacturer's instructions in the usual way in conjunction with a BioTek EL-310 plate reader (Cambridge Scientific Products, Cambridge, Mass., USA).
Pharmaceutical compositions were administered by instillation in the eyes of rats or administered as a mist using the nebulization device described above at a rate of 10 μl minute^−1. Subsequent to administration and a waiting time, the rats were sacrificed.
Subsequent to sacrifice, serum, cerebrospinal fluid (CSF, 50-100 μl), retina, optic nerve, sclera, and aqueous humor (AH) of an animal were harvested. The retina, optic nerve, and sclera of each animal was individually homogenized in 120 ul assay buffer on ice and centrifuged. The serum, CSF, AH and the homogenized retina, optic nerve and sclera were assayed for the presence of leptin using ELISA.
Data below is expressed as pg ml^−1 for serum, CSF and AH and as pg mg^−1 for tissue (determined using the Lowry method). […]

[3] = reported in Saettone et al. Int. J. Pharma. 1996

## CC(C)(C)NCC(O)COc1cccc2c1CCCC2=O.Cl (single isomer, unassigned; (-)) [Levobunolol, (−)-5-[3-(tert-Butylamino)-2-hydroxypropoxy]-3,4-dihydro-1(2H)-naphthalenone hydrochloride]
beta-adrenoceptor
  potency in beta-blocking activity relative to its dextro isomer: greater than 60 times

## CCCCCCCCCCCCCCCC[n+]1ccccc1 [cetylpyridinium chloride]
[1]
  toxicity to human corneal epithelial cells relative to Brij-78 and EDTA: less toxic to human corneal epithelial cells than Brij-78 but more toxic than EDTA

## C[C@@H]1CC[C@@]2(OC1)O[C@H]1[C@@H](O)[C@H]3[C@@H]4CC[C@H]5C[C@@H](O[C@@H]6O[C@H](CO)[C@H](O[C@@H]7O[C@H](CO)[C@@H](O)[C@H](O[C@@H]8OC[C@@H](O)[C@H](O)[C@H]8O)[C@H]7O[C@@H]7O[C@H](CO)[C@H](O)[C@H](O[C@@H]8O[C@H](CO)[C@@H](O)[C@H](O)[C@H]8O)[C@H]7O)[C@H](O)[C@H]6O)[C@H](O)C[C@]5(C)[C@H]4CC[C@]3(C)[C@H]1[C@@H]2C [digitonin]
eye; [3]
  irritation to the eye: strongly irritating to the eye

## CC(=O)O[C@H]1C[C@@]2(C)[C@@H](C[C@@H](O)[C@H]3[C@@]4(C)CC[C@@H](O)[C@@H](C)[C@@H]4CC[C@@]32C)/C1=C(\CCC=C(C)C)C(=O)O [sodium fusidate]
eye; reported in Furrer et al. AAPS PharmSci 2002
  irritation to the eye: strongly irritating to the eye

## BL-9
eye; [3]
  irritation to the eye: strongly irritating to the eye

## Brij-99
eye; reported in Morgan, J. Ocular Pharm. Ther. 1995
  irritation to the eye: strongly irritation to the eye

## benzalkonium chloride
eye; [3]
  irritation to the eye: strongly irritating to the eye
[1]
  toxicity to human corneal epithelial cells relative to Brij-78 and EDTA: less toxic to human corneal epithelial cells than Brij-78 but more toxic than EDTA

## leptin
[2]
  leptin concentration in optic nerve and sclera relative to retina: markedly higher than in the retina
